# Measurements taken from article PMC11157767 (Molecular Cancer, 2024).
# Test system: TFG-MET allograft tumors
# Assay: RNA-sequencing, differential expression and GSEA of TFG-MET allograft tumors
# Format: in vivo, mouse
# Conditions: for NES / ES: CAP v Veh
# Method: Error bars display standard error of mean, statistical significance was determined using t-test analysis. (****;p<0.0001, ***;p<0.001, **;p<0.01, *;p<0.05). […] Each dot represents an individual replicate. Error bars display standard error of the mean.
# Each dot represents one gene.
compound,measurement,setting,value
CNC(=O)c1ccc(-c2cnc3ncc(Cc4ccc5ncccc5c4)n3n2)cc1F [Capmatinib],NES,"GOMF_METHYL_CPG_BINDING, padj 0.00511198",-1.901
same,ES,GOMF_MHC_CLASS_I_PROTEIN_BINDING,0.5483
same,NES,"GOMF_MHC_CLASS_I_PROTEIN_BINDING, padj 0.0474647",1.828
same,ES,GOMF_MHC_PROTEIN_BINDING,0.5523
same,NES,"GOMF_MHC_PROTEIN_BINDING, padj 0.00543159",2.003
same,ES,GOMF_MHC_PROTEIN_COMPLEX_BINDING,0.5077
same,NES,"GOMF_MHC_PROTEIN_COMPLEX_BINDING, padj 0.0199782",1.841
same,ES,GOMF_MOLECULAR_CARRIER_ACTIVITY,-0.4555
same,NES,"GOMF_MOLECULAR_CARRIER_ACTIVITY, padj 0.0120933",-1.714
same,ES,GOMF_MONOCARBOXYLIC_ACID_BINDING,0.3828
same,NES,"GOMF_MONOCARBOXYLIC_ACID_BINDING, padj 0.0474647",1.672
same,ES,GOMF_MRNA_3_UTR_AU_RICH_REGION_BINDING,-0.5181
same,NES,"GOMF_MRNA_3_UTR_AU_RICH_REGION_BINDING, padj 0.0473079",-1.618
same,NES,"GOMF_NUCLEAR_HORMONE_RECEPTOR_BINDING, padj 0.072562",-1.431
same,ES,GOMF_NUCLEAR_IMPORT_SIGNAL_RECEPTOR_ACTIVITY,-0.6033
same,NES,"GOMF_NUCLEAR_IMPORT_SIGNAL_RECEPTOR_ACTIVITY, padj 0.0320889",-1.75
same,ES,GOMF_NUCLEAR_LOCALIZATION_SEQUENCE_BINDING,-0.6311
same,NES,"GOMF_NUCLEAR_LOCALIZATION_SEQUENCE_BINDING, padj 0.00765978",-1.864
same,ES,GOMF_NUCLEOSOMAL_DNA_BINDING,-0.5966
same,NES,"GOMF_NUCLEOSOMAL_DNA_BINDING, padj 0.0072907",-1.89
same,ES,GOMF_N_ACETYLTRANSFERASE_ACTIVITY,-0.4164
same,NES,"GOMF_N_ACETYLTRANSFERASE_ACTIVITY, padj 0.0419799",-1.576
same,ES,GOMF_N_ACYLTRANSFERASE_ACTIVITY,-0.4102
same,NES,"GOMF_N_ACYLTRANSFERASE_ACTIVITY, padj 0.0206273",-1.607
same,ES,GOMF_OXIDOREDUCTASE_ACTIVITY_ACTING_ON_PEROXIDE_AS_ACCEPTOR,0.4091
same,NES,"GOMF_OXIDOREDUCTASE_ACTIVITY_ACTING_ON_PEROXIDE_AS_ACCEPTOR, padj 0.0419799",1.715
same,ES,GOMF_PATTERN_RECOGNITION_RECEPTOR_ACTIVITY,0.5546
same,NES,"GOMF_PATTERN_RECOGNITION_RECEPTOR_ACTIVITY, padj 0.0257673",1.913
same,ES,GOMF_PEPTIDE_LYSINE_N_ACETYLTRANSFERASE_ACTIVITY,-0.4722
same,NES,"GOMF_PEPTIDE_LYSINE_N_ACETYLTRANSFERASE_ACTIVITY, padj 0.0420426",-1.64
same,ES,GOMF_PEPTIDE_N_ACETYLTRANSFERASE_ACTIVITY,-0.5177
same,NES,"GOMF_PEPTIDE_N_ACETYLTRANSFERASE_ACTIVITY, padj 0.00513885",-1.848
same,ES,GOMF_PHOSPHATIDYLINOSITOL_BINDING,-0.3004
same,NES,"GOMF_PHOSPHATIDYLINOSITOL_BINDING, padj 0.0651825",-1.368
same,ES,GOMF_POLY_A_BINDING,-0.5704
same,NES,"GOMF_POLY_A_BINDING, padj 0.0381242",-1.705
same,ES,GOMF_POLY_PURINE_TRACT_BINDING,-0.5827
same,NES,"GOMF_POLY_PURINE_TRACT_BINDING, padj 0.00978552",-1.871
same,ES,GOMF_POLY_PYRIMIDINE_TRACT_BINDING,-0.5996
same,NES,"GOMF_POLY_PYRIMIDINE_TRACT_BINDING, padj 0.0067416",-1.9
same,ES,GOMF_PROMOTER_SPECIFIC_CHROMATIN_BINDING,-0.4442
same,NES,"GOMF_PROMOTER_SPECIFIC_CHROMATIN_BINDING, padj 0.0320889",-1.624
same,ES,GOMF_PROTEIN_DEMETHYLASE_ACTIVITY,-0.5705
same,NES,"GOMF_PROTEIN_DEMETHYLASE_ACTIVITY, padj 0.0162496",-1.8078
same,ES,GOMF_PROTEIN_DIMERIZATION_ACTIVITY,-0.2556
same,NES,"GOMF_PROTEIN_DIMERIZATION_ACTIVITY, padj 0.0359639",-1.243
same,ES,GOMF_PROTEIN_HETERODIMERIZATION_ACTIVITY,-0.3318
same,NES,"GOMF_PROTEIN_HETERODIMERIZATION_ACTIVITY, padj 0.0174921",-1.498
same,ES,GOMF_PROTEIN_KINASE_ACTIVITY,-0.2726
same,NES,"GOMF_PROTEIN_KINASE_ACTIVITY, padj 0.0456955",-1.304
same,ES,GOMF_PROTEIN_PHOSPHATASE_2A_BINDING,-0.5386
same,NES,"GOMF_PROTEIN_PHOSPHATASE_2A_BINDING, padj 0.0201355",-1.753
same,ES,GOMF_PROTEIN_SERINE_THREONINE_KINASE_ACTIVITY,-0.3032
same,NES,"GOMF_PROTEIN_SERINE_THREONINE_KINASE_ACTIVITY, padj 0.0120933",-1.428
same,ES,GOMF_PROTEIN_TYROSINE_PHOSPHATASE_ACTIVITY,-0.3851
same,NES,"GOMF_PROTEIN_TYROSINE_PHOSPHATASE_ACTIVITY, padj 0.0351889",-1.569
same,ES,GOMF_PROTON_CHANNEL_ACTIVITY,0.5654
same,NES,"GOMF_PROTON_CHANNEL_ACTIVITY, padj 0.036911",1.8848
same,ES,GOMF_PROTON_TRANSPORTING_ATP_SYNTHASE_ACTIVITY_ROTATIONAL_MECHANISM,0.5869
same,NES,"GOMF_PROTON_TRANSPORTING_ATP_SYNTHASE_ACTIVITY_ROTATIONAL_MECHANISM, padj 0.0283897",1.877
same,ES,GOMF_REGULATORY_RNA_BINDING,-0.5385
same,NES,"GOMF_REGULATORY_RNA_BINDING, padj 0.00683082",-1.8485
same,ES,GOMF_RIBONUCLEOPROTEIN_COMPLEX_BINDING,-0.5611
same,NES,"GOMF_RIBONUCLEOPROTEIN_COMPLEX_BINDING, padj 7.15005e-11",-2.398
same,ES,GOMF_RNA_POLYMERASE_CORE_ENZYME_BINDING,-0.5304
same,NES,"GOMF_RNA_POLYMERASE_CORE_ENZYME_BINDING, padj 0.00672226",-1.848
same,ES,GOMF_RNA_POLYMERASE_II_SPECIFIC_DNA_BINDING_TRANSCRIPTION_FACTOR_BINDING,-0.3093
same,NES,"GOMF_RNA_POLYMERASE_II_SPECIFIC_DNA_BINDING_TRANSCRIPTION_FACTOR_BINDING, padj 0.0419799",-1.413
same,ES,GOMF_RNA_POLYMERASE_II_TRANSCRIPTION_COREGULATOR_BINDING,-0.521
same,NES,"GOMF_RNA_POLYMERASE_II_TRANSCRIPTION_COREGULATOR_BINDING, padj 0.0452435",-1.627
same,ES,GOMF_RNA_POLYMERASE_II_TRANSCRIPTION_COREPRESSOR_BINDING,-0.5717
same,NES,"GOMF_RNA_POLYMERASE_II_TRANSCRIPTION_COREPRESSOR_BINDING, padj 0.0607303",-1.658
same,ES,GOMF_SCAVENGER_RECEPTOR_ACTIVITY,0.3949
same,NES,"GOMF_SCAVENGER_RECEPTOR_ACTIVITY, padj 0.0600708",1.665
same,ES,GOMF_SMAD_BINDING,-0.4569
same,NES,"GOMF_SMAD_BINDING, padj 0.00360904",-1.79
same,ES,GOMF_SNORNA_BINDING,-0.7989
same,NES,"GOMF_SNORNA_BINDING, padj 3.3197e-10",-2.624
same,ES,GOMF_SUMO_BINDING,-0.6876
same,NES,"GOMF_SUMO_BINDING, padj 0.00672226",-1.882
same,ES,GOMF_SUMO_TRANSFERASE_ACTIVITY,-0.594
same,NES,"GOMF_SUMO_TRANSFERASE_ACTIVITY, padj 0.0682113",-1.626
same,ES,GOMF_S_ADENOSYLMETHIONINE_DEPENDENT_METHYLTRANSFERASE_ACTIVITY,-0.5424
same,NES,"GOMF_S_ADENOSYLMETHIONINE_DEPENDENT_METHYLTRANSFERASE_ACTIVITY, padj 2.7667e-10",-2.336
same,ES,GOMF_THIOLESTER_HYDROLASE_ACTIVITY,0.4211
same,NES,"GOMF_THIOLESTER_HYDROLASE_ACTIVITY, padj 0.0377403",1.7345
same,ES,GOMF_TRANSCRIPTION_COREGULATOR_BINDING,-0.4265
same,NES,"GOMF_TRANSCRIPTION_COREGULATOR_BINDING, padj 0.0442278",-1.612
same,ES,GOMF_TRANSCRIPTION_COREPRESSOR_BINDING,-0.5161
same,ES,GOMF_TRANSITION_METAL_ION_BINDING,-0.2675
same,NES,"GOMF_TRANSITION_METAL_ION_BINDING, padj 0.0113612",-1.302
same,ES,GOMF_TRANSLATION_REGULATOR_ACTIVITY,-0.5628
same,NES,"GOMF_TRANSLATION_REGULATOR_ACTIVITY, padj 1.90601e-11",-2.407
same,ES,GOMF_TRNA_BINDING,-0.6579
same,NES,"GOMF_TRNA_BINDING, padj 2.7667e-10",-2.532
same,ES,GOMF_UBIQUITIN_LIKE_PROTEIN_BINDING,-0.3584
same,NES,"GOMF_UBIQUITIN_LIKE_PROTEIN_BINDING, padj 0.0474647",-1.467
same,ES,GOMF_UNFOLDED_PROTEIN_BINDING,-0.3758
same,NES GOCC_NUCLEOLUS,"GSEA CAP vs Veh, C5 GO CC, padj 2.86725e-63",-2.612
same,NES GOCC_RIBONUCLEOPROTEIN_COMPLEX,"GSEA CAP vs Veh, C5 GO CC, padj 3.5373e-43",-2.521
same,NES GOCC_NUCLEAR_BODY,"GSEA CAP vs Veh, C5 GO CC, padj 3.83827e-29",-2.196
same,NES GOCC_PRERIBOSOME,"GSEA CAP vs Veh, C5 GO CC, padj 8.43804e-27",-3.164
same,NES GOCC_CHROMOSOMAL_REGION,"GSEA CAP vs Veh, C5 GO CC, padj 8.8925e-17",-2.317
